# Results as given in ChEMBL document CHEMBL3227942, “Synthetic studies on beta-lactam antibiotics. Part 101. Synthesis of 7beta-[2-carboxy-2-(4-hydroxyphenyl)acetamido]-7alpha-methoxy-3-[[(1-methyl-1H-tetrazol-5-yl)thio]-methyl]-1-oxa-1-dethia-3-cephem-4-carboxylic acid disodium salt (6059-S) and its related 1-oxacephems” (1979).
# Experiments:
# Type in all cases: functional
# Enterobacter cloacae = assay: Antibacterial activity against Enterobacter cloacae 233
# Serratia marcescens = assay: Antibacterial activity against Serratia marcescens ATCC 13880
# Klebsiella pneumoniae [1] = assay: Antibacterial activity against beta-lactamase producing Klebsiella pneumoniae 363
# Staphylococcus aureus [2] = assay: Antibacterial activity against beta-lactamase producing Staphylococcus aureus C-14
# Escherichia coli = assay: Antibacterial activity against Escherichia coli NIHJ JC-2
# Staphylococcus aureus [3] = assay: Antibacterial activity against Staphylococcus aureus 209P JC-1
# Pseudomonas aeruginosa = assay: Antibacterial activity against Pseudomonas aeruginosa 24
# Klebsiella pneumoniae [4] = assay: Antibacterial activity against Klebsiella pneumoniae
# Proteus mirabilis = assay: Antibacterial activity against Proteus mirabilis PR-4
# Proteus vulgaris = assay: Antibacterial activity against Proteus vulgaris CN-329
# Streptococcus pneumoniae = assay: Antibacterial activity against Streptococcus pneumoniae I
MIC (Enterobacter cloacae),MIC (Serratia marcescens),MIC (Klebsiella pneumoniae [1]),MIC (Staphylococcus aureus [2]),MIC (Escherichia coli),MIC (Staphylococcus aureus [3]),MIC (Pseudomonas aeruginosa),MIC (Klebsiella pneumoniae [4]),MIC (Proteus mirabilis),MIC (Proteus vulgaris),MIC (Streptococcus pneumoniae),SMILES
100 mg/L,> 100 mg/L,> 100 mg/L,0.1 mg/L,0.8 mg/L,0.013 mg/L,> 100 mg/L,0.2 mg/L,0.4 mg/L,50 mg/L,0.025 mg/L,CC(=O)OCC1=C(C(=O)O)N2C(=O)[C@@H](NC(=O)Cc3cccs3)[C@H]2OC1
0.4 mg/L,6.3 mg/L,100 mg/L,0.4 mg/L,0.05 mg/L,0.025 mg/L,> 100 mg/L,0.05 mg/L,0.1 mg/L,0.1 mg/L,0.025 mg/L,Cn1nnnc1SCC1=C(C(=O)O)N2C(=O)[C@@H](NC(=O)[C@H](O)c3ccccc3)[C@H]2OC1
0.2 mg/L,0.4 mg/L,0.05 mg/L,6.3 mg/L,0.1 mg/L,6.3 mg/L,25 mg/L,0.1 mg/L,0.1 mg/L,0.1 mg/L,3.1 mg/L,CO[C@@]1(NC(=O)C(C(=O)[O-])c2ccc(O)cc2)C(=O)N2C(C(=O)[O-])=C(CSc3nnnn3C)CO[C@@H]21.[Na+].[Na+] (some centres not stated) [MOXALACTAM DISODIUM]
3.1 mg/L,50 mg/L,> 100 mg/L,0.4 mg/L,0.4 mg/L,0.1 mg/L,> 100 mg/L,0.4 mg/L,0.8 mg/L,0.8 mg/L,0.1 mg/L,Cn1nnnc1SCC1=C(C(=O)O)N2C(=O)[C@@H](NC(=O)[C@H](O)c3ccccc3)[C@H]2SC1 [CEFAMANDOLE]
12.5 mg/L,12.5 mg/L,0.8 mg/L,3.1 mg/L,1.6 mg/L,0.8 mg/L,> 100 mg/L,0.8 mg/L,1.6 mg/L,0.8 mg/L,1.6 mg/L,CO[C@]1(NC(=O)[C@H](OC=O)c2ccccc2)C(=O)N2C(C(=O)O)=C(CSc3nnnn3C)CS[C@@H]21
3.1 mg/L,3.1 mg/L,0.1 mg/L,0.4 mg/L,0.05 mg/L,0.4 mg/L,> 100 mg/L,0.1 mg/L,0.2 mg/L,0.2 mg/L,0.2 mg/L,CO[C@@]1(NC(=O)[C@H](OC=O)c2ccccc2)C(=O)N2C(C(=O)O)=C(CSc3nnnn3C)CO[C@@H]21

SMILES,MIC (Enterobacter cloacae),MIC (Serratia marcescens),MIC (Klebsiella pneumoniae [1]),MIC (Staphylococcus aureus [2]),MIC (Escherichia coli),MIC (Staphylococcus aureus [3]),MIC (Pseudomonas aeruginosa),MIC (Klebsiella pneumoniae [4]),MIC (Proteus mirabilis),MIC (Proteus vulgaris),MIC (Streptococcus pneumoniae)
CC(=O)OCC1=C(C(=O)O)N2C(=O)[C@@H](NC(=O)Cc3cccs3)[C@H]2SC1 [CEPHALOTHIN],> 100 mg/L,> 100 mg/L,> 100 mg/L,0.2 mg/L,6.3 mg/L,0.05 mg/L,> 100 mg/L,0.8 mg/L,3.1 mg/L,50 mg/L,0.1 mg/L
